The term EC50 denotes the midpoint of the concentration-response curve. The term solubility denotes the dissolved amount per volume that the medium holds.

Molecules are shown by their SMILES.

One series concerns the target T1, hPIEZO1 (Homo sapiens, UniProt Q92508).
T1 construct: expressed in transfected cells
Description: Intracellular Ca2+ measurement (Fura-2) in hPIEZO1-TREx cells. Format: cell-based. The following applies: for Peak ΔCa2+i (ΔF340/380), median fold difference compared to Yoda1: 10 μM compound, hPIEZO1-TREx cells, paired with 10 μM Yoda1; for Ability to evoke intracellular Ca2+ elevation: 10 μM, cells overexpressing hPIEZO1, compared with Yoda1. The text has this:
HEK T‐REx™ 293 cells (Thermo Fisher Cat #R71007, RRID:CVCL_D585) that overexpress hPIEZO1 upon induction with tetracycline were generated as previously described (Rode et al., [2017]). PIEZO1‐GFP was used as a PCR template to clone hPIEZO1 coding sequence into pcDNA™4/TO between HindIII and EcoRI restriction sites. PIEZO1 was amplified as two fragments using the following primers: (HindIII‐PIEZO1‐Fw: […] and BamHI‐Int.PIEZO1‐Rv: […]) and (BamHI‐Int. PIEZO1‐Fw: […] and EcoRI‐PIEZO1‐Rv: […]). The two fragments were fused using BamHI restriction site, resulting in the full‐length PIEZO1 coding sequence with the c4182a silent mutation. HEK T‐REx™ 293 cells (Invitrogen) were transfected with pcDNA4/TO‐PIEZO1 using Lipofectamine 2000 (Thermo Fisher Scientific). Subsequently, cells were treated with 10 μg·ml^−1 blasticidin and 200 μg·ml^−1 zeocin (InvivoGen) to select stably transfected cells. Single‐cell clones were isolated and analysed individually. Expression was induced by treating the cells for 24 h with 10 ng·ml^−1 tetracycline and analysed by quantitative RT‐PCR and Western blot. These cells are referred to as hPIEZO1‐TREx.
(§1) HEK 293‐TREx cells and their stably transfected derivatives or transiently transfected HEK 293 or HeLa cells were seeded at a density of 7.5 × 10^4 cells per well into poly‐D‐lysine‐coated 96‐well plates. The plates were either commercially pre‐coated with poly‐D‐lysine (Greiner Bio‐One #655946) or (Greiner Bio‐One #655090) were coated in‐house with 35 μl of a 10 μg·ml^−1 poly‐D‐lysine (Bio‐Techne, Cultrex # 3439‐100‐01) in sterile deionised water per well for at least 24 h and rinsed three times with 100 μl per well sterile D‐PBS before addition of cells. HUVECs were seeded into tissue culture‐treated 96‐well plates (Greiner Bio‐One #655090) at a density of either 2.5 × 10^4 cells 24 h before experimentation or 1.25 × 10^4 cells 48 h before experimentation. Cells were incubated with 2 μM Fura‐2‐AM (Molecular Probes™) in the presence of 0.01% (wt./vol.) pluronic F127 (Sigma‐Aldrich #P2443) in standard bath solution (SBS) for 1 h at 37°C. Cells were washed with SBS for 30 min at room temperature. Alternatively, if inhibitors were being tested, these were added at this time, immediately following a wash in SBS. (−)‐Englerin A (Akbulut et al., [2015]) was used in SBS containing 0.01% pluronic acid as a dispersing agent to minimise aggregation of compound. Unless otherwise stated, the final concentration of DMSO was 0.2% (vol./vol). Working 2000× stock solutions of test compounds were freshly made in DMSO and diluted 1000‐fold in SBS during the 30 min SBS wash/inhibitor pre‐incubation period to obtain 2× solutions for injection. When testing the highest concentration of Yoda1, KC159 and KC289 (30 μM), the final DMSO concentration was 0.6% (vol./vol.). Measurements were made at room temperature on a 96‐well fluorescence plate reader (FlexStation 3, Molecular Devices, Sunnyvale, CA, USA) controlled by SoftMax Pro software v7.0.3. Recipient wells containing 80 μl SBS/0.2% (vol./vol.) DMSO vehicle or inhibitor compound received 80 μl 2× compound at an injection rate of 1 μl·s^−1, and the pipette introduced liquids from a height setting of 70 μl. No trituration was performed. For recordings using Fura‐2, the change in intracellular Ca was indicated as the ratio of Fura‐2 emission (510 nm) intensities at 340 and 380 nm excitation. Photomultipliers were set to medium sensitivity. SBS contained 130 mM NaCl, 5 mM KCl, 8 mM D‐glucose, 10 mM HEPES, 1.2 mM MgCl2 and 1.5 mM CaCl2, and the pH was adjusted to 7.4 with NaOH. The solution was filtered through a 0.2 μm bottle‐top filter prior to use and handled aseptically thereafter.
For intracellular Ca^2+ (Ca^2+i) measurements, technical intra‐experiment replicates were used to improve confidence in the data. Analysis of individual experiments was performed to obtain mean ± SEM values. […]

A further series deals with T2, mPIEZO1 (Mus musculus, UniProt E2JF22).
T2 construct: expressed in transfected cells
Description: Intracellular Ca2+ measurement (Fura-2) in mPIEZO1-TREx cells. Format: cell-based. The following applies: for Peak ΔCa2+i (ΔF340/380), median fold difference compared to Yoda1: 10 μM compound, mPIEZO1-TREx cells, paired with 10 μM Yoda1; for Ca2+ response (agonist effect): 10 μM, cells overexpressing mPIEZO1, compared with Yoda1; for EC50: overexpressed mouse PIEZO1, calcium assays.
Text: HEK T‐REx™ cells that constitutively overexpress murine PIEZO1 were generated as previously described (Blythe et al., [2019]). pcDNA3 mouse PIEZO1 (mPIEZO1) IRES green fluorescent protein (GFP), a gift from Ardem Patapoutian (Coste et al., [2010]), was used as a template to clone the mPIEZO1 coding sequence into pcDNA4/TO. Overlapping mPIEZO1 (forward primer 5′‐[…]‐3′ and reverse primer 5′‐[…]‐3′) and pcDNA4/TO (forward primer 5′‐[…]‐3′ and reverse primer 5′‐[…]‐3′) PCR products were assembled using Gibson Assembly (New England Biolabs). […] HEK T‐REx™ 293 cells were transfected with pcDNA4/TO‐mPIEZO1 using Lipofectamine 2000 (Invitrogen) and treated with 200 μg·ml^−1 zeocin to select stably transfected cells. Individual clones were isolated and analysed for expression using Yoda1 and intracellular Ca^2+ measurements. These cells are referred to as mPIEZO1‐TREx.
as §1
For intracellular Ca^2+ (Ca^2+i) measurements, technical intra‐experiment replicates were used to improve confidence in the data. Analysis of individual experiments was performed to obtain mean ± SEM values. For collated analysis of independent experiments, where normal distributions were not evidenced by Shapiro–Wilk normality tests, non‐parametric distributions were assumed, and therefore, median values were used. […]

The nature of series [1]: In-house aqueous solubility in universal aqueous buffer. Format: physicochemical. The following applies: for Solubility in aqueous buffer relative to Yoda1: universal aqueous buffer pH 7.4. The protocol:
Standard curves for each test compound were constructed. DMSO‐dissolved test compounds were added to universal aqueous buffer (45 mM ethanolamine, 45 mM KH2PO4 and 45 mM KOAc, pH 7.4): acetonitrile 80:20 (298.5 μl) at a final DMSO concentration of 0.5%. Samples were incubated at room temperature with 300 rpm shaking for 30 min; 200 μl of each well was transferred to a 96‐well polypropylene V‐bottomed collection plate, and absorbance readings were taken at 250–500 nm in 10 nm increments. Thus, the λ max was identified at which concentration versus absorbance was plotted to provide standard curves.
After filtration through hydrophilic PTFE 0.2 μm filters, 160 μl sample was transferred to wells of a 96‐well polypropylene V‐bottomed collection plate and 40 μl acetonitrile was added to each well. Absorbance readings were taken at 250–500 nm in 10 nm increments. Solubility was calculated at the appropriate λ max with reference to the standard curve.

T2 sequence (E2JF22 whole entry): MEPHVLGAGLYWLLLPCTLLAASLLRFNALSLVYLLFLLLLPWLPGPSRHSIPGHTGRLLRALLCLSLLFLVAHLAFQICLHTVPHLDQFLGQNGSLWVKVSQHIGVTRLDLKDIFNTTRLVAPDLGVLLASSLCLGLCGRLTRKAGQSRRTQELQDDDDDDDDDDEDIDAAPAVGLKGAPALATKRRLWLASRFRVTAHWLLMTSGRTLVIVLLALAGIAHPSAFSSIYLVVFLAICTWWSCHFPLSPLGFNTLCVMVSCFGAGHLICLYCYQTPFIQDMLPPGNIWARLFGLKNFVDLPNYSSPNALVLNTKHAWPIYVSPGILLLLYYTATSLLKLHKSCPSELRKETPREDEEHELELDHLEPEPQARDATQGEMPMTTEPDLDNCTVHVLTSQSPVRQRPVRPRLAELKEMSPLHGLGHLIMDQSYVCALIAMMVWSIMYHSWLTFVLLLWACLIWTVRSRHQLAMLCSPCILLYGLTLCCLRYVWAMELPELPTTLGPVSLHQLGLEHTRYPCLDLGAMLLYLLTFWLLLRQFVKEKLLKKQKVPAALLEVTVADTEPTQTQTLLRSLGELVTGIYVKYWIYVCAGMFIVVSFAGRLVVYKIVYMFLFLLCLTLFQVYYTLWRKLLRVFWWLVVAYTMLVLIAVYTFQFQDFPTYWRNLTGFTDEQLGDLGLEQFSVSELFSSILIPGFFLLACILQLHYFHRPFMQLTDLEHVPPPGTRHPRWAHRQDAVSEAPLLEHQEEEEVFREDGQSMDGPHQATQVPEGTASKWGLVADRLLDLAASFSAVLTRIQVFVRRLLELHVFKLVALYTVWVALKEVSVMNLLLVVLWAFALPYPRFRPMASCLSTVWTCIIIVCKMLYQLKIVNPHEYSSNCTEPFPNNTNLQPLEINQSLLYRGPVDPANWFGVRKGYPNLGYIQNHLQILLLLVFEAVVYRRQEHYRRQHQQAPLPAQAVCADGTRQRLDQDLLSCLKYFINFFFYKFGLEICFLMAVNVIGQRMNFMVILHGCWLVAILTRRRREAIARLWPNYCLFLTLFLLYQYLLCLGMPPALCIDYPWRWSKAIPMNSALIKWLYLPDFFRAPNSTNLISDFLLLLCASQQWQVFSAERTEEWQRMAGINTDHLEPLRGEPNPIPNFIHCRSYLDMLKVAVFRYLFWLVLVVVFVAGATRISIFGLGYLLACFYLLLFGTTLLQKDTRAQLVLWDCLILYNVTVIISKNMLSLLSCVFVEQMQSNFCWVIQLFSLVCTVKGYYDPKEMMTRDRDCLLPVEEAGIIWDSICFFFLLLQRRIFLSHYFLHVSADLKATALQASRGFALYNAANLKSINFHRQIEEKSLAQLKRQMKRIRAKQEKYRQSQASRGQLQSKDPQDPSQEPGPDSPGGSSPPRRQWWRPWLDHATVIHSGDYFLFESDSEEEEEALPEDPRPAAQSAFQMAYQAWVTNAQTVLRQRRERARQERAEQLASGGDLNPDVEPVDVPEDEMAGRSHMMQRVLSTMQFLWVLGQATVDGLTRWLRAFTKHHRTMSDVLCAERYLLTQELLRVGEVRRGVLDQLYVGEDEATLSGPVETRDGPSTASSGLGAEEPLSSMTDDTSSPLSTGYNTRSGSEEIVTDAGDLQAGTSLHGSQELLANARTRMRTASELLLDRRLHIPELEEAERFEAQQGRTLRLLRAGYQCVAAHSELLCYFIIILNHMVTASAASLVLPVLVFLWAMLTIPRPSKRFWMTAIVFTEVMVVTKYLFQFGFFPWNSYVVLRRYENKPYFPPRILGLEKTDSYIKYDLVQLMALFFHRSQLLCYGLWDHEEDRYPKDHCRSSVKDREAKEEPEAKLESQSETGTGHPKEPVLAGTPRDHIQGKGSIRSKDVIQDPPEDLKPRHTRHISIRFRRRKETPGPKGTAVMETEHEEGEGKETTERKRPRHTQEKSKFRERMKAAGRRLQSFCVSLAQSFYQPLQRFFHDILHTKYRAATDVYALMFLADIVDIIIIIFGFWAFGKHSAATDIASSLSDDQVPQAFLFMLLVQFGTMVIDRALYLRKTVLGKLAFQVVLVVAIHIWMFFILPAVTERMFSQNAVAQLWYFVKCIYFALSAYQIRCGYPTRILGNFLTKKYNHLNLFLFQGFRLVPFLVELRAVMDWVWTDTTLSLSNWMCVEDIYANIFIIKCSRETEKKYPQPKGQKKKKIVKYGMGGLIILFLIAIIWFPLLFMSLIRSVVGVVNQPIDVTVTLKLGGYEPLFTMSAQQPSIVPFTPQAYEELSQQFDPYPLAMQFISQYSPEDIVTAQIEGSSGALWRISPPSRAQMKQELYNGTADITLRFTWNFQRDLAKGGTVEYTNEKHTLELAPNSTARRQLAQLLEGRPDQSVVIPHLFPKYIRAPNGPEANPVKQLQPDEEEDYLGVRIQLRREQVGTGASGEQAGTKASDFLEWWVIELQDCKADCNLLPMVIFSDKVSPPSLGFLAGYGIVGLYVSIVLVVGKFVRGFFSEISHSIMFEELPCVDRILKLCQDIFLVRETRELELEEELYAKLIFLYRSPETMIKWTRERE
T1 sequence (Q92508 whole entry): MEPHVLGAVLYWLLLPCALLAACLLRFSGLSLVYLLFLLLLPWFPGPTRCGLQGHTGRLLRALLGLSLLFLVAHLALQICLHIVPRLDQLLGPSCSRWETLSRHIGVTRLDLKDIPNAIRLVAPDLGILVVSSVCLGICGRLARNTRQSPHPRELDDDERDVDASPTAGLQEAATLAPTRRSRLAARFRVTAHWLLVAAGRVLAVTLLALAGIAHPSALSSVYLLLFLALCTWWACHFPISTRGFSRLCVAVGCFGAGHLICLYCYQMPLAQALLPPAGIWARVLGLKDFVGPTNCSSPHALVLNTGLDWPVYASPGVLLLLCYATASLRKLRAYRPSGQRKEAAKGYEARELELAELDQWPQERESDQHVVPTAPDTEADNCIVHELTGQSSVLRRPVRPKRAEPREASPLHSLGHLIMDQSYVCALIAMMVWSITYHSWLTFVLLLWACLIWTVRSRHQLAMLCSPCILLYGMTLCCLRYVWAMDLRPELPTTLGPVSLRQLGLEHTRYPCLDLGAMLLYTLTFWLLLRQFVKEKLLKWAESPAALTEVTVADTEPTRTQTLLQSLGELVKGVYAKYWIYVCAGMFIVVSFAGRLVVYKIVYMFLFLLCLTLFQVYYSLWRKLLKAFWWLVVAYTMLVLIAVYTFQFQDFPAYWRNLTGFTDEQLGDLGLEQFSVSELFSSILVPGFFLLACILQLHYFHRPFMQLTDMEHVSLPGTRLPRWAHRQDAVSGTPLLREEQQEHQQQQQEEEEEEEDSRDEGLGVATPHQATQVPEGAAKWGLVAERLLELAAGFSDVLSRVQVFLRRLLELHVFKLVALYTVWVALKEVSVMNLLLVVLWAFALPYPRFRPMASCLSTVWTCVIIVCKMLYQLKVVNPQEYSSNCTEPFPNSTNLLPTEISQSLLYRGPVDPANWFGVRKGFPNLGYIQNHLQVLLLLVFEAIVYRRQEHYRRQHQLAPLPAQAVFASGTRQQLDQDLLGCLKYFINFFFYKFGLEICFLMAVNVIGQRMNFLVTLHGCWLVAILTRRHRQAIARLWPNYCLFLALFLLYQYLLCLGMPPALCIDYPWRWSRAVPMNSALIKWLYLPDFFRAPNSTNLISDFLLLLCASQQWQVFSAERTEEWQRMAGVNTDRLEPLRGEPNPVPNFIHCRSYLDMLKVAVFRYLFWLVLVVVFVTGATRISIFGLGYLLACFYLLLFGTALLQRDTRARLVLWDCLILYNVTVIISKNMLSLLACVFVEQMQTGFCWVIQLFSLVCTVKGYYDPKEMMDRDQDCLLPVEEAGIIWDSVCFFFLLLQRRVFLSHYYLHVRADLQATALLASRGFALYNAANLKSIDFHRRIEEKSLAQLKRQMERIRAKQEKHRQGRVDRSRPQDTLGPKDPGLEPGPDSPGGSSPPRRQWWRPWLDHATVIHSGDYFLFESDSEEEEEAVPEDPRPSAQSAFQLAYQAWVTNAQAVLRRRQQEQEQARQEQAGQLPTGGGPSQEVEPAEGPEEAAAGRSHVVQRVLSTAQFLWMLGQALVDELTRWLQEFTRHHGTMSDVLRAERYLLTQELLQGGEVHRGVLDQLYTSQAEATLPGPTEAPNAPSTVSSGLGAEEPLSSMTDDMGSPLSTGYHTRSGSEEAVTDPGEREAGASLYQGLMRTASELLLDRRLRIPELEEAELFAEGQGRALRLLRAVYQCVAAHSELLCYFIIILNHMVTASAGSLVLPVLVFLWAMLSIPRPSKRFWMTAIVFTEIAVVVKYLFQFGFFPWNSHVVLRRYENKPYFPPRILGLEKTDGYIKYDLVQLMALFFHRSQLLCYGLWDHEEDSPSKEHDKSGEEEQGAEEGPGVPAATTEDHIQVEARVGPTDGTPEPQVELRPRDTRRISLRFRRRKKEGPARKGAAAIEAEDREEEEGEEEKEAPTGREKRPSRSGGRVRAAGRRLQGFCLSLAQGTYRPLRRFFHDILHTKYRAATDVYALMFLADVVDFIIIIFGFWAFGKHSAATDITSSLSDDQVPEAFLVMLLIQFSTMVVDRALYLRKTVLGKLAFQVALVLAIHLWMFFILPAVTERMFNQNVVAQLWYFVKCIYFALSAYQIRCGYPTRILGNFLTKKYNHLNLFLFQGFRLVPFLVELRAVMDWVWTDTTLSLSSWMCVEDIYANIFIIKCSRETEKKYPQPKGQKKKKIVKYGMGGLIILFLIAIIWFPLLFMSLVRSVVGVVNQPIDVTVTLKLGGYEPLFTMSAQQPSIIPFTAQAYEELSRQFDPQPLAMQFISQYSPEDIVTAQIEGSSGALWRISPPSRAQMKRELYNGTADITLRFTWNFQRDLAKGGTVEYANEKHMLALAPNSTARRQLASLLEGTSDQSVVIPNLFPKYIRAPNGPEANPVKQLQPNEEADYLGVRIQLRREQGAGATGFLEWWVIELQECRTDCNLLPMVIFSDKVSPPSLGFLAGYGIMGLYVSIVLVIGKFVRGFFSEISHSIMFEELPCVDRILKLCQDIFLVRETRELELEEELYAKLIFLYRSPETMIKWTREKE

`O=C(O)c1ccccc1-c1nnc(SCc2c(Cl)cccc2Cl)s1` [KC157]: the “Peak ΔCa2+i (ΔF340/380), median fold difference compared to Yoda1” value at hPIEZO1 is on record as −24.4 fold. Also, on mPIEZO1, the “Peak ΔCa2+i (ΔF340/380), median fold difference compared to Yoda1” value is −70.6 fold and the “Ca2+ response (agonist effect)” value was “inactive”.
`O=C(O)c1ccc(-c2nnc(SCc3c(Cl)cccc3Cl)s2)cc1` [KC159]: the “Solubility in aqueous buffer relative to Yoda1” value in series [1] is reported as “at least 160 times”. Also, on hPIEZO1, the “Peak ΔCa2+i (ΔF340/380), median fold difference compared to Yoda1” value was “+1.8 fold” and the “Ability to evoke intracellular Ca2+ elevation” value is on record as “robust responses that are larger than those of Yoda1”. On mPIEZO1, the “Peak ΔCa2+i (ΔF340/380), median fold difference compared to Yoda1” value is “+1.1 fold”; the “Ca2+ response (agonist effect)” value is reported as “larger responses than Yoda1”; the EC50 came out at 280 nM.
`O=C([O-])c1ccc(-c2nnc(SCc3c(Cl)cccc3Cl)s2)cc1.[K+]` [KC289]: the “Solubility in aqueous buffer relative to Yoda1” value in series [1] is reported as “at least 160 times”. In addition, on hPIEZO1, the “Peak ΔCa2+i (ΔF340/380), median fold difference compared to Yoda1” value is listed as “+2.8 fold” and the “Ability to evoke intracellular Ca2+ elevation” value is on record as “robust responses that are larger than those of Yoda1”. On mPIEZO1, the “Peak ΔCa2+i (ΔF340/380), median fold difference compared to Yoda1” value is given as “+1.2 fold”; the “Ca2+ response (agonist effect)” value was “larger responses than Yoda1”; the EC50 turned out to be 150 nM. In addition, the “Potency relative to Yoda1” value on mPIEZO1 (mPIEZO1, from EC50 values) was “approximately four times more potent than Yoda1”.
Take `Clc1cccc(Cl)c1CSc1nnc(-c2cnccn2)s1` [Yoda1, 2‐[5‐[[(2,6‐dichlorophenyl)methyl]thio]‐1,3,4‐thiadiazol‐2‐yl]pyrazine]: the solubility at 1.5 h in series [1] (universal aqueous buffer, pH 7.4, aqueous buffer, kinetic from dmso stock, lower limit of detection 0.1 µM, read-out: Estimated solubility in universal aqueous buffer) is less than 0.1 µM. In addition, the EC50 at mPIEZO1 is 600 nM.

(Values after publication PMC10952572, “Improved PIEZO1 agonism through 4‐benzoic acid modification of Yoda1” (British Journal of Pharmacology, 2023).)
